System: A172, LN229, U87, A549, Hela, PC-3, and MDA-231 cells
Assay: ROS production, DCFDA assay, all used cell lines
Format: cell-based, human
Conditions: positive control at 500 μM concentration
Protocol: The reactive oxygen species (ROS) formation on the selected cell lines upon exposure to the synthesized Cu(II) and Pt(II) complexes was investigated using the oxidation-sensitive dye, 2ʹ,7ʹ-dichlorofluorescein diacetate (DCFDA, #D6883 Sigma-Aldrich). The cell lines (A172, LN229, U87, HeLa, MDA-231, PC-3, A549, and CHO-K1) were seeded (6 × 10^3 cells/well) into the 96-well plates and incubated at 37°C and 5% CO2 for 24 h. After that, the Cu(II) and Pt(II) complexes, at a concentration range of 6.25 to 100 μM, were added to the cell monolayers. Hydrogen peroxide (H2O2), at concentrations from 50 to 500 μM, was utilized as a positive control. The following day, 5 μM of DCFDA in PBS was added to the cell monolayers and, then, the plate was incubated for 30–45 min. Consequently, the fluorescence intensity was measured with 485 nm excitation and 535 nm emission wavelengths using a microplate reader. The fluorescence values of each treatment were normalized to the negative control, including only growth medium without any treatment. The assay was repeated in triplicate.

**Q.** For `OO` [H2O2, Hydrogen peroxide, reference compound], which ROS generation is on record?
**A.** 3 fold

— article PMC10849753, “Antiproliferative activity of platinum(II) and copper(II) complexes containing novel biquinoxaline ligands” (Metallomics: Integrated Biometal Science, 2024)
